Test system: patients with MUM
Test: Adverse events regardless of study drug relationship
Assay type: in vivo, human
Experimental: Routine safety assessments, including laboratory assessments, physical examinations, vital signs and electrocardiograms (ECGs), were conducted at regular intervals throughout the study and more frequently as needed following patient assessment by the treating physician. Adverse events (AEs) were assessed continuously according to the National Cancer Institute Common Terminology Criteria for Adverse Events (NCI-CTCAE) v4.03.

CC1(N)CCN(c2cccnc2NC(=O)c2nc(-c3ncccc3C(F)(F)F)cnc2N)CC1 [LXS196]
ALT increased, all grades (300 mg BID (RDE)): 5 (27.8) n (%)
ALT increased, grade ≥3 (300 mg BID (RDE)): 1 (5.6) n (%)
AST increased, all grades (300 mg BID (RDE)): 4 (22.2) n (%)
AST increased, grade ≥3 (300 mg BID (RDE)): 2 (11.1) n (%)
Abdominal pain upper, all grades (300 mg BID (RDE)): 3 (16.7) n (%)
Abdominal pain upper, grade ≥3 (300 mg BID (RDE)): 0 n (%)
Asthenia, all grades (300 mg BID (RDE)): 4 (22.2) n (%)
Asthenia, grade ≥3 (300 mg BID (RDE)): 0 n (%)
Blood creatinine increased, all grades (300 mg BID (RDE)): 2 (11.1) n (%)
Blood creatinine increased, grade ≥3 (300 mg BID (RDE)): 0 n (%)
Constipation, all grades (300 mg BID (RDE)): 4 (22.2) n (%)
Constipation, grade ≥3 (300 mg BID (RDE)): 0 n (%)
Decreased appetite, all grades (300 mg BID (RDE)): 2 (11.1) n (%)
Decreased appetite, grade ≥3 (300 mg BID (RDE)): 0 n (%)
Dermatitis acneiform, all grades (300 mg BID (RDE)): 3 (16.7) n (%)
Dermatitis acneiform, grade ≥3 (300 mg BID (RDE)): 0 n (%)
Diarrhoea, all grades (300 mg BID (RDE)): 11 (61.1) n (%)
Diarrhoea, grade ≥3 (300 mg BID (RDE)): 1 (5.6) n (%)
Dry skin, all grades (300 mg BID (RDE)): 4 (22.2) n (%)
Dry skin, grade ≥3 (300 mg BID (RDE)): 0 n (%)
Fatigue, all grades (300 mg BID (RDE)): 6 (33.3) n (%)
Fatigue, grade ≥3 (300 mg BID (RDE)): 0 n (%)
Hypotension, all grades (300 mg BID (RDE)): 3 (16.7) n (%)
Hypotension, grade ≥3 (300 mg BID (RDE)): 0 n (%)
Nasopharyngitis, all grades (300 mg BID (RDE)): 2 (11.1) n (%)
Nasopharyngitis, grade ≥3 (300 mg BID (RDE)): 0 n (%)
Nausea, all grades (300 mg BID (RDE)): 15 (83.3) n (%)
Nausea, grade ≥3 (300 mg BID (RDE)): 0 n (%)
Neutropenia, all grades (300 mg BID (RDE)): 0 n (%)
Neutropenia, grade ≥3 (300 mg BID (RDE)): 0 n (%)
Oedema peripheral, all grades (300 mg BID (RDE)): 5 (27.8) n (%)
Oedema peripheral, grade ≥3 (300 mg BID (RDE)): 1 (5.6) n (%)
Patients with ≥1 AE, all grades (300 mg BID (RDE)): 18 (100) n (%)
Patients with ≥1 AE, grade ≥3 (300 mg BID (RDE)): 8 (44.4) n (%)
Rash, all grades (300 mg BID (RDE)): 5 (27.8) n (%)
Rash, grade ≥3 (300 mg BID (RDE)): 0 n (%)
Vomiting, all grades (300 mg BID (RDE)): 8 (44.4) n (%)
Vomiting, grade ≥3 (300 mg BID (RDE)): 0 n (%)
ALT increased, all grades (300 mg QD): 4 (26.7) n (%)
ALT increased, grade ≥3 (300 mg QD): 1 (6.7) n (%)
AST increased, all grades (300 mg QD): 1 (6.7) n (%)
AST increased, grade ≥3 (300 mg QD): 1 (6.7) n (%)
Abdominal pain upper, all grades (300 mg QD): 2 (13.3) n (%)
Abdominal pain upper, grade ≥3 (300 mg QD): 0 n (%)
Asthenia, all grades (300 mg QD): 3 (20.0) n (%)
Asthenia, grade ≥3 (300 mg QD): 0 n (%)
Blood creatinine increased, all grades (300 mg QD): 2 (13.3) n (%)
Blood creatinine increased, grade ≥3 (300 mg QD): 0 n (%)
Constipation, all grades (300 mg QD): 4 (26.7) n (%)
Constipation, grade ≥3 (300 mg QD): 0 n (%)
Decreased appetite, all grades (300 mg QD): 0 n (%)
Decreased appetite, grade ≥3 (300 mg QD): 0 n (%)
Dermatitis acneiform, all grades (300 mg QD): 1 (6.7) n (%)
Dermatitis acneiform, grade ≥3 (300 mg QD): 0 n (%)
Diarrhoea, all grades (300 mg QD): 6 (40.0) n (%)
Diarrhoea, grade ≥3 (300 mg QD): 0 n (%)
Dry skin, all grades (300 mg QD): 1 (6.7) n (%)
Dry skin, grade ≥3 (300 mg QD): 0 n (%)
Fatigue, all grades (300 mg QD): 8 (53.3) n (%)
Fatigue, grade ≥3 (300 mg QD): 0 n (%)
Hypotension, all grades (300 mg QD): 1 (6.7) n (%)
Hypotension, grade ≥3 (300 mg QD): 0 n (%)
Nasopharyngitis, all grades (300 mg QD): 3 (20.0) n (%)
Nasopharyngitis, grade ≥3 (300 mg QD): 0 n (%)
Nausea, all grades (300 mg QD): 10 (66.7) n (%)
Nausea, grade ≥3 (300 mg QD): 0 n (%)
Neutropenia, all grades (300 mg QD): 3 (20.0) n (%)
Neutropenia, grade ≥3 (300 mg QD): 1 (6.7) n (%)
Oedema peripheral, all grades (300 mg QD): 2 (13.3) n (%)
Oedema peripheral, grade ≥3 (300 mg QD): 0 n (%)
Patients with ≥1 AE, all grades (300 mg QD): 14 (93.3) n (%)
Patients with ≥1 AE, grade ≥3 (300 mg QD): 4 (26.7) n (%)
Rash, all grades (300 mg QD): 4 (26.7) n (%)
Rash, grade ≥3 (300 mg QD): 0 n (%)
Vomiting, all grades (300 mg QD): 6 (40.0) n (%)
Vomiting, grade ≥3 (300 mg QD): 0 n (%)
ALT increased, all grades (400 mg BID): 3 (50.0) n (%)
ALT increased, grade ≥3 (400 mg BID): 1 (16.7) n (%)
AST increased, all grades (400 mg BID): 3 (50.0) n (%)
AST increased, grade ≥3 (400 mg BID): 1 (16.7) n (%)
Abdominal pain upper, all grades (400 mg BID): 0 n (%)
Abdominal pain upper, grade ≥3 (400 mg BID): 0 n (%)
Asthenia, all grades (400 mg BID): 2 (33.3) n (%)
Asthenia, grade ≥3 (400 mg BID): 0 n (%)
Blood creatinine increased, all grades (400 mg BID): 0 n (%)
Blood creatinine increased, grade ≥3 (400 mg BID): 0 n (%)
Constipation, all grades (400 mg BID): 2 (33.3) n (%)
Constipation, grade ≥3 (400 mg BID): 0 n (%)
Decreased appetite, all grades (400 mg BID): 2 (33.3) n (%)
Decreased appetite, grade ≥3 (400 mg BID): 0 n (%)
Dermatitis acneiform, all grades (400 mg BID): 1 (16.7) n (%)
Dermatitis acneiform, grade ≥3 (400 mg BID): 0 n (%)
Diarrhoea, all grades (400 mg BID): 3 (50.0) n (%)
Diarrhoea, grade ≥3 (400 mg BID): 0 n (%)
Dry skin, all grades (400 mg BID): 1 (16.7) n (%)
Dry skin, grade ≥3 (400 mg BID): 0 n (%)
Fatigue, all grades (400 mg BID): 1 (16.7) n (%)
Fatigue, grade ≥3 (400 mg BID): 0 n (%)
Hypotension, all grades (400 mg BID): 4 (66.7) n (%)
Hypotension, grade ≥3 (400 mg BID): 1 (16.7) n (%)
Nasopharyngitis, all grades (400 mg BID): 0 n (%)
Nasopharyngitis, grade ≥3 (400 mg BID): 0 n (%)
Nausea, all grades (400 mg BID): 3 (50.0) n (%)
Nausea, grade ≥3 (400 mg BID): 0 n (%)
Neutropenia, all grades (400 mg BID): 1 (16.7) n (%)
Neutropenia, grade ≥3 (400 mg BID): 0 n (%)
Oedema peripheral, all grades (400 mg BID): 1 (16.7) n (%)
Oedema peripheral, grade ≥3 (400 mg BID): 0 n (%)
Patients with ≥1 AE, all grades (400 mg BID): 6 (100) n (%)
Patients with ≥1 AE, grade ≥3 (400 mg BID): 4 (66.7) n (%)
Rash, all grades (400 mg BID): 1 (16.7) n (%)
Rash, grade ≥3 (400 mg BID): 0 n (%)
Vomiting, all grades (400 mg BID): 3 (50.0) n (%)
Vomiting, grade ≥3 (400 mg BID): 0 n (%)

— paper PMC10006169, “A phase I trial of LXS196, a protein kinase C (PKC) inhibitor, for metastatic uveal melanoma” (British Journal of Cancer, 2023)
